Converted amounts (≈) assume the structure as drawn. Where a name gives a salt, the structure may show the parent alone. Read-outs that look alike come from different tables or passages of the source.
What was measured:
Assay in all cases: Antibacterial spectrum (Minimum Inhibitory Concentration)
Type in all cases: cell-based
[1] = tested on: Bacillus subtilis PCI 219
Excerpt: (§1) The antibacterial tests were done according to the method authorized by the Chemotherapeutic Society of Japan.

E. coli ATCC 10536 = details: Escherichia coli
Excerpt: as §1

[2] = tested on: Escherichia coli NIHJ JC-2
Excerpt: as §1

[3] = tested on: Klebsiella pneumoniae IFO 3512
Excerpt: as §1

[4] = tested on: Mycobacterium smegmatis IFO 3083; details: Mycolicibacterium smegmatis
Excerpt: as §1

Pr. vulgaris XK Denken = details: Proteus vulgaris, read-out: Minimum Inhibitory Concentration
Excerpt: as §1

[5] = tested on: Proteus vulgaris IFO 3167
Excerpt: as §1

Ps. aeruginosa IFO 12689 = details: Pseudomonas aeruginosa
Excerpt: as §1

Ps. aeruginosa IID 1130 = details: Pseudomonas aeruginosa
Excerpt: as §1

Ps. aeruginosa IID 1210 = details: Pseudomonas aeruginosa
Excerpt: as §1

[6] = tested on: Pseudomonas aeruginosa V-1
Excerpt: as §1

[7] = tested on: Salmonella enteritidies IID 604
Excerpt: as §1

Shigella sonnei IID 969 = details: IID969; Shigella sonnei IID 969, Gram -
Excerpt: as §1

Sta. aureus ATCC 14775 = details: Staphylococcus aureus
Excerpt: as §1

[8] = tested on: Staphylococcus aureus 209P; details: read-out: Minimum Inhibitory Concentration
Excerpt: as §1

Ser. marcescens IID 619 = details: Serratia marcescens
Excerpt: as §1

Ser. marcescens IID 620 = details: Serratia marcescens
Excerpt: as §1

[9] = tested on: Serratia marcescens IID 618
Excerpt: as §1

[10] = PCI219, Bacillus subtilis PCI 219, Gram +, read-out: Minimum Inhibitory Concentration
[11] = ATCC10536, read-out: Minimum Inhibitory Concentration
[12] = Escherichia coli, NIHJJC2, read-out: Minimum Inhibitory Concentration
[13] = Klebsiella pneumoniae, IFO3512, read-out: Minimum Inhibitory Concentration
[14] = IFO3083, Mycobacterium smegmatis IFO 3083, Gram +, read-out: Minimum Inhibitory Concentration
[15] = IFO3167, Proteus vulgaris IFO 3167, Gram -, read-out: Minimum Inhibitory Concentration
[16] = IFO12689, Ps. aeruginosa IFO 12689, Gram -, read-out: Minimum Inhibitory Concentration
[17] = IID1130, Ps. aeruginosa IID 1130, Gram -, read-out: Minimum Inhibitory Concentration
[18] = IID1210, Ps. aeruginosa IID 1210, Gram -, read-out: Minimum Inhibitory Concentration
[19] = V1, Pseudomonas aeruginosa V-1, Gram -, read-out: Minimum Inhibitory Concentration
[20] = IID604, Salmonella enteritidies IID 604, Gram -, read-out: Minimum Inhibitory Concentration
[21] = ATCC14775, Sta. aureus ATCC 14775, Gram +, read-out: Minimum Inhibitory Concentration
[22] = Staphylococcus aureus 209P, Gram +
[23] = ATCC10536, E. coli ATCC 10536, Gram -, read-out: Minimum Inhibitory Concentration
[24] = NIHJJC2, Escherichia coli NIHJ JC-2, Gram -, read-out: Minimum Inhibitory Concentration
[25] = IFO3512, Klebsiella pneumoniae IFO 3512, Gram -, read-out: Minimum Inhibitory Concentration
[26] = Proteus vulgaris, IFO3167, read-out: Minimum Inhibitory Concentration
[27] = IID619, Ser. marcescens IID 619, Gram -, read-out: Minimum Inhibitory Concentration
[28] = IID620, Ser. marcescens IID 620, Gram -, read-out: Minimum Inhibitory Concentration
[29] = IID618, Serratia marcescens IID 618, Gram -, read-out: Minimum Inhibitory Concentration
[30] = Bacillus subtilis, PCI219, read-out: Minimum Inhibitory Concentration
[31] = IFO12689, read-out: Minimum Inhibitory Concentration
[32] = IID1130, read-out: Minimum Inhibitory Concentration
[33] = IID1210, read-out: Minimum Inhibitory Concentration
[34] = Pseudomonas aeruginosa, V1, read-out: Minimum Inhibitory Concentration
[35] = Salmonella, IID604, read-out: Minimum Inhibitory Concentration
[36] = ATCC14775, read-out: Minimum Inhibitory Concentration

Compound	MIC [1, 10] [µg/mL]	MIC (E. coli ATCC 10536; [11]) [µg/mL]	MIC [2, 12] [µg/mL]	MIC [3, 13] [µg/mL]	MIC [4, 14] [µg/mL]	MIC (Pr. vulgaris XK Denken; Pr. vulgaris XK Denken, Gram -) [µg/mL]	MIC [5, 15] [µg/mL]	MIC (Ps. aeruginosa IFO 12689; [16]) [µg/mL]	MIC (Ps. aeruginosa IID 1130; [17]) [µg/mL]	MIC (Ps. aeruginosa IID 1210; [18]) [µg/mL]	MIC [6, 19] [µg/mL]	MIC [7, 20] [µg/mL]	MIC (Shigella sonnei IID 969) [µg/mL]	MIC (Sta. aureus ATCC 14775; [21]) [µg/mL]	MIC [8, 22] [µg/mL]	MIC (E. coli ATCC 10536; [23]) [µg/mL]	MIC [2, 24] [µg/mL]	MIC [3, 25] [µg/mL]	MIC (Pr. vulgaris XK Denken) [µg/mL]	MIC [5, 26] [µg/mL]	other results
CCn1cc(C(=O)O)c(=O)c2cnc(N3CCNCC3)nc21 [Pipemidic acid, reference compound]	6.25 (≈ 20.6 µM)	1.56 (≈ 5.14 µM)	1.56 (≈ 5.14 µM)	1.56 (≈ 5.14 µM)	50 (≈ 165 µM)	6.25 (≈ 20.6 µM)	3.13 (≈ 10.3 µM)	25 (≈ 82.4 µM)	25 (≈ 82.4 µM)	50 (≈ 165 µM)	12.5 (≈ 41.2 µM)	12.5 (≈ 41.2 µM)	1.56 (≈ 5.14 µM)	100 (≈ 330 µM)	25 (≈ 82.4 µM)						
CCn1cc(C(=O)O)c(=O)c2cc(Cl)c(N3CCN(CC(=O)O)CC3)cc21 [Example 14]	50 (≈ 127 µM)				> 100	12.5 (≈ 31.7 µM)	25 (≈ 63.5 µM)	> 100			> 100					12.5 (≈ 31.7 µM)	12.5 (≈ 31.7 µM)	12.5 (≈ 31.7 µM)			MIC ([8]; Staphylococcus aureus, 209P): 50 µg/mL (≈ 127 µM)
C=Cn1cc(C(=O)O)c(=O)c2cc(F)c(N3CCN(C)CC3)cc21.Cl [Example 4, 1-vinyl-6-fluoro-7-(4-methyl-1-piperazinyl)-4-oxo-1,4-dihydroquinoline-3-carboxylic acid hydrochloride]	0.39	0.2						3.13	6.25	3.13	3.13	0.78	0.2	3.13	1.56		< 0.1	< 0.1	0.2	0.2	MIC (Ser. marcescens IID 619; [27]): 0.78 µg/mL; MIC (Ser. marcescens IID 620; [28]): 0.39 µg/mL; MIC [9, 29]: 0.39 µg/mL
CCn1cc(C(=O)O)c(=O)c2cc(Br)c(N3CCNCC3)cc21 [Example 22, 1-ethyl-6-bromo-dihydro-4-oxo-7-(1-piperazinyl)quinoline-3-carboxylic acid hydrochloride]	1.56					1.56	0.39	50	50	100	12.5	1.56	0.39	12.5	3.13	0.78	0.39	0.39			MIC (Ser. marcescens IID 619; [27]): 3.13 µg/mL; MIC (Ser. marcescens IID 620; [28]): 0.78 µg/mL; MIC [9, 29]: 0.78 µg/mL
Cl.O=C(O)c1cn(CCF)c2cc(N3CCNCC3)c(F)cc2c1=O [Example 5, 1-(2-fluoroethyl)-6-fluoro-7-(1-piperazinyl)-4-oxo-1,4-dihydroquinoline-3-carboxylic acid hydrochloride]		0.2	< 0.1	< 0.1									< 0.1						0.39	0.2	MIC [1, 30]: 0.2 µg/mL; MIC (Ps. aeruginosa IFO 12689; [31]): 3.13 µg/mL; MIC (Ps. aeruginosa IID 1130; [32]): 1.56 µg/mL; MIC (Ps. aeruginosa IID 1210; [33]): 3.13 µg/mL; MIC [6, 34]: 0.78 µg/mL; MIC [7, 35]: 0.78 µg/mL; MIC (Ser. marcescens IID 619; IID619, read-out: Minimum Inhibitory Concentration): 0.39 µg/mL; MIC (Ser. marcescens IID 620; IID620, read-out: Minimum Inhibitory Concentration): 0.2 µg/mL; MIC ([9]; Serratia marcescens, IID618, read-out: Minimum Inhibitory Concentration): 0.2 µg/mL; MIC (Sta. aureus ATCC 14775; [36]): 6.25 µg/mL; MIC ([8]; Staphylococcus aureus, 209P): 1.56 µg/mL
CN1CCN(c2cc3c(cc2F)c(=O)c(C(=O)O)cn3CCF)CC1 [Example 6, 1-(2-fluoroethyl)-6-fluoro-7-(4-methyl-1-piperazinyl)-4-oxo-1,4-dihydroquinoline-3-carboxylic acid]				< 0.1				3.13 (≈ 8.91 µM)	6.25 (≈ 17.8 µM)	6.25 (≈ 17.8 µM)	3.13 (≈ 8.91 µM)	0.78 (≈ 2.22 µM)	< 0.1	0.78 (≈ 2.22 µM)	0.39 (≈ 1.11 µM)	0.2 (≈ 0.569 µM)	< 0.1		< 0.1	< 0.1	MIC [1, 30]: < 0.1 µg/mL; MIC (Ser. marcescens IID 619; [27]): 0.2 µg/mL (≈ 0.569 µM); MIC (Ser. marcescens IID 620; [28]): 0.2 µg/mL (≈ 0.569 µM); MIC [9, 29]: 0.2 µg/mL (≈ 0.569 µM)
CCn1cc(C(=O)O)c(=O)c2ccc(C)nc21 [Nalidixic, nalidixic acid, reference compound]		3.13 (≈ 13.5 µM)	3.13 (≈ 13.5 µM)	1.56 (≈ 6.72 µM)									1.56 (≈ 6.72 µM)						3.13 (≈ 13.5 µM)	3.13 (≈ 13.5 µM)	MIC [1, 30]: 6.25 µg/mL (≈ 26.9 µM); MIC ([4]; IFO3083, read-out: Minimum Inhibitory Concentration): > 100 µg/mL; MIC (Ps. aeruginosa IFO 12689; [31]): > 200 µg/mL; MIC (Ps. aeruginosa IID 1130; [32]): > 200 µg/mL; MIC (Ps. aeruginosa IID 1210; [33]): > 200 µg/mL; MIC [6, 34]: 100 µg/mL (≈ 431 µM); MIC [7, 35]: 12.5 µg/mL (≈ 53.8 µM); MIC (Sta. aureus ATCC 14775; [36]): > 100 µg/mL; MIC ([8]; Staphylococcus aureus, 209P): 100 µg/mL (≈ 431 µM)
CCOC(=O)CN1CCN(c2cc3c(cc2Cl)c(=O)c(C(=O)O)cn3CC)CC1 [Example 13, 1-ethyl-6-chloro-7-(4-ethoxycarbonylmethyl-1-piperazinyl)-4-oxo-1,4-dihydroquinoline-3-carboxylic acid]	3.13 (≈ 7.42 µM)				25 (≈ 59.3 µM)	50 (≈ 119 µM)	100 (≈ 237 µM)	> 100			> 100				> 100	100 (≈ 237 µM)	100 (≈ 237 µM)	6.25 (≈ 14.8 µM)			

Reference: patent US4448962A, “Substituted quinoline carboxylic acid derivatives” (Kyorin Seiyaku Kabushiki Kaisha, priority 1978, dated 1984)
